The text below walks through data of patent US11917908B2, “Organic compound, optical device, light-emitting device, light-emitting apparatus, electronic device, and lighting device” (SEMICONDUCTOR ENERGY LABORATORY CO., LTD., priority 2019, dated 2024).

Common to all, as to type: physicochemical
Data set [1] in a line: Thermogravimetry-differential thermal analysis (TG-DTA), weight reduction temperature. The conditions noted are these: for Temperature at TG −5% (weight reduction temperature): weight reduced from initial weight by 5%; for Temperature at TG −5% (weight reduction temperature) / Temperature at TG −10% (weight reduction temperature) / Temperature at TG −50% (weight reduction temperature): 10 Pa, temperature rising rate 10° C./min; for Temperature at TG −10% (weight reduction temperature): weight reduced from initial weight by 10%; for Temperature at TG −50% (weight reduction temperature): weight reduced from initial weight by 50%. The procedure:
The thermogravimetry-differential thermal analysis (TG-DTA) of these four substances was performed. The measurement was performed with a high vacuum differential type differential thermal balance (TG-DTA2410SA, produced by Bruker AXS K.K.). […] The temperatures of the time when the weight of the organic compounds is reduced from the initial weight by 5%, 10%, and 50% (weight reduction temperature) are shown in Table 3.

Data set [2] is described as follows: Solubility in a solvent (toluene, 25° C.). The conditions noted are these: for solubility: organic solvent or mixture, 1M. The procedure: The measurement results on the solubility of 3,10PCA2Nbf(IV)-02 and 3,10mmtBuPCA2Nbf(IV)-02 in a solvent are shown below. The solubility in the table are that in toluene at 25° C. Consequently, the organic compound of one embodiment of the present invention has improved solubility in a solvent owing to the bonding of the secondary or tertiary alkyl groups having 3 to 6 carbon atoms and having a branched carbon atom which is bonded to the phenyl group to the two meta-positions of the phenyl group bonded to the 9-position of the carbazolyl group. Thus, the organic compound of one embodiment of the present invention can be easily produced owing to the easy purification.

Data set [3] can be described thus: Behaviour at sublimation purification. The conditions noted are these: at the time of sublimation purification.

As usually defined, the solubility is how much of the substance goes into solution per volume. With `CC(C)(C)c1cc(-n2c3ccccc3c3ccc(N(c4ccccc4)c4ccc5c(c4)oc4cc6cc7c(cc6cc45)oc4cc(N(c5ccccc5)c5ccc6c8ccccc8n(-c8cc(C(C)(C)C)cc(C(C)(C)C)c8)c6c5)ccc47)cc32)cc(C(C)(C)C)c1` [3,10mmtBuPCA2Nbf(IV)-02, N,N-bis[9-(3,5-di-tert-butylphenyl)-9H-carbazol-2-yl]-N,N-diphenyl-naphtho[2,3-b;6,7-b′]bisbenzofuran-3,10-diamine], the “Sublimability (from weight reduction temperatures)” value in data set [1] (comparison of the four substances of Table 3) is “highest sublimability”. Besides, in data set [1], the “Temperature at TG −5% (weight reduction temperature)” value is 378 °C, the “Temperature at TG −10% (weight reduction temperature)” value stood at 394 °C and the “Temperature at TG −50% (weight reduction temperature)” value worked out at 423 °C. Further, the “Solubility 0.01M” value in data set [2] (0.01M) is “∘”. Further, the “Solubility 0.1M” value in data set [2] (0.1M) is listed as “∘”. Moreover, in data set [2], the solubility was under 1000 mM.
Regarding `CCCCCCc1cc(CCCCCC)cc(-n2c3ccccc3c3ccc(N(c4ccccc4)c4ccc5c(c4)oc4cc6cc7c(cc6cc45)oc4cc(N(c5ccccc5)c5ccc6c8ccccc8n(-c8cc(CCCCCC)cc(CCCCCC)c8)c6c5)ccc47)cc32)c1` [3,10mmHexPCA2Nbf(IV)-02, N,N-bis[9-(3,5-dihexylphenyl)-9H-carbazol-2-yl]-N,N-diphenyl-naphtho[2,3-b;6,7-b′]bisbenzofuran-3,10-diamine], in data set [1], the “Temperature at TG −5% (weight reduction temperature)” value was determined as 384 °C, the “Temperature at TG −10% (weight reduction temperature)” value stood at 407 °C and the “Temperature at TG −50% (weight reduction temperature)” value worked out at 442 °C. Besides, in data set [3], the “Stability at sublimation purification” value was “decomposed at the time of sublimation purification”.
Consider `CCc1cc(CC)cc(-n2c3ccccc3c3ccc(N(c4ccccc4)c4ccc5c(c4)oc4cc6cc7c(cc6cc45)oc4cc(N(c5ccccc5)c5ccc6c8ccccc8n(-c8cc(CC)cc(CC)c8)c6c5)ccc47)cc32)c1` [3,10mmEtPCA2Nbf(IV)-02, N,N-bis[9-(3,5-diethylphenyl)-9H-carbazol-2-yl]-N,N-diphenyl-naphtho[2,3-b;6,7-b′]bisbenzofuran-3,10-diamine], for which, in data set [1], the “Temperature at TG −5% (weight reduction temperature)” value amounted to 380 °C, the “Temperature at TG −10% (weight reduction temperature)” value came to 402 °C and the “Temperature at TG −50% (weight reduction temperature)” value was 436 °C.
For `c1ccc(N(c2ccc3c(c2)oc2cc4cc5c(cc4cc23)oc2cc(N(c3ccccc3)c3ccc4c6ccccc6n(-c6ccccc6)c4c3)ccc25)c2ccc3c4ccccc4n(-c4ccccc4)c3c2)cc1` [3,10PCA2Nbf(IV)-02, 3,10-bis[N-(9-phenyl-9H-carbazol-2-yl)-N-phenylamino]naphtho[2,3-b;6,7-b′]bisbenzofuran], in data set [1], the “Temperature at TG −5% (weight reduction temperature)” value worked out at 398 °C, the “Temperature at TG −10% (weight reduction temperature)” value came out at 411 °C and the “Temperature at TG −50% (weight reduction temperature)” value is 442 °C. In data set [2], the solubility is under 10 mM.
